Results taken from patent US20150136233A1, “ORGANIC PHOTOVOLTAIC DEVICES COMPRISING FULLERENES AND DERIVATIVES” (The Regents of the University of California, priority 2013, published 2015).

Tests used:
[1] = LUMO energy level by cyclic voltammetry; type: physicochemical; settings: for LUMO Energy Level: cyclic voltammetry, onset of first reduction, ferrocene internal reference, o-dichlorobenzene/acetonitrile 4:1
Protocol: The electronic property of the synthesized fullerenes are characterized by cyclic voltammetry (CV) using a Bio-Logic Multi-channel Potentiostat with Pt as a counter electrode, Ag/Ag+ as a reference electrode and ferrocene as an internal reference, with 4:1 v/v ratio of o-dichlorobenzene and acetonitrile as solvent and 0.1 M tetrabutylammonium hexafluorophosphate as electrolyte at a scan rate of 100 mV/s. […] The LUMO levels are calculated according to the following equation 2 using the onset of the first reduction. The data are listed in Table 2, LUMOs of C60, C70, PCBM, Bis-PCBM, ICMA and ICBA were measured under the same condition and listed too as reference.
ELUMO=[(EFLN(Vs Ag/Ag+)(E^1/2Ferrocene(Vs Ag/Ag+)]−4.8 eV (equation 2)

[2] = references [15, 18]; cited from earlier work

Row | LUMO Energy Level [1] [eV] | LUMO higher than that of PCBM [1] [eV] | Compound | LUMO increase compared to pristine C60 [1] | LUMO of bis-addition fullerene higher than LUMO of the mono-addition fullerene (PCBM, ICMA respectively) [2]
1 | −3.72 | 0.1 | bis(1-[3-(methoxycarbonyl)propyl]-1-phenyl)[6.6]C62 [Bis-PC61BM] |  | about 0.1 eV
2 | −3.76 |  | 1′,4′-dihydro-naphtho[2′,3′:1,2][5,6]fullerene-C60 [IC60MA] | about 0.1 eV | 

Row | Compound | LUMO Energy Level [1] [eV] | LUMO higher than that of PCBM [1] [eV] | LUMO increase compared to pristine C60 [1] | LUMO of bis-addition fullerene higher than LUMO of the mono-addition fullerene (PCBM, ICMA respectively) [2]
3 | COC(=O)CCCC1(c2ccccc2)C23c4c5c6c7c8c9c(c%10c%11c2c2c%12c4c4c%13c5c5c7c7c8c8c%14c9c%10c9c%10c%11c2c2c%11c%12c4c4c%12c%13c5c5c7c7c8c8c%14c9c9c%10c2c2c%11c4c4c%12c5c7c5c8c9c2c45)C613 (stereo not shown) [PC61BM, [6,6]-phenyl C61-butyric acid methyl ester] | −3.80 |  | about 0.1 eV | 
